The numbers were not newly measured in patent publication US10206884B2, “Microcapsules with polymeric coating comprising a lipid and an active agent” (FRESENIUS KABI DEUTSCHLAND GMBH, priority 2013, dated 2019), which cites them from elsewhere.

Each structure is given as a SMILES string.

On to `CCCC(=O)OCC(COC(=O)CCC)OC(=O)CCC` [tributyrin, 1,3-di(butanoyloxy)propan-2-yl butanoate], for which the solubility in water entry was “only poorly soluble in water”.
